The values that follow come from US6565897B2, “Extract of nerium species, pharmaceutical composition thereof and methods for preparation thereof” (Ozelle Pharmaceuticals, Inc., priority 1998, dated 2003).

The subject of the experiment is Tumor Necrosis Factor (TNF). As to the kind of experiment: Tumor Necrosis Factor (TNF) production (immune stimulation). To be noted: at a concentration of 50 mcg/mL. Format: cell-based. The text has this:
For example, the polysaccharide PS-I is shown to produce 256 Unit/mL of Tumor Necrosis Factor (TNF) at a concentration of 50 mcg/mL while a mixture of PS-II, PS-III and PS-IV is shown to produce 1000 Unit/mL of TNF at a concentration of 3 mcg/mL.

For Poly α (1→4) D-Galacturonic Acid [PS-I], the “Tumor Necrosis Factor (TNF) produced” value worked out at 256 Unit/mL.
